Results on two compounds are retold here after patent publication US10106551B2, “Monothiol mucolytic agents” (PARION SCIENCES, INC., priority 2015, dated 2018).

Data set [1] is described as follows: Parallel Artificial Membrane Permeability (PAMPA) Assay. The class given is in vitro ADME. To be noted: FIG. 5; 5 hours, room temperature. As to the method: This assay measures the permeability of small molecules across an artificial phospholipid membrane to help predict in vivo drug permeability. First, 500 μM stock solutions were made up in PBS and tested by the DTNB assay (described above) to determine compound activity concentrations. Next, 300 μL of the 500 μM compound stock solution and 200 uL PBS were added per well to the donor and acceptor plates, respectively (BD Gentest™ Pre-Coated PAMPA Plate System). The acceptor plate was then placed on top of the donor plate and allowed to incubate at room temperature for 5 hours. After incubation, the donor and acceptor plates were separated. For each reaction, samples were taken from both the acceptor and donor plates and were combined with DTNB prior to reading spectrophotometrically (maximum Abs412). For prodrug samples, 1 μL of purified esterase (porcine liver esterase; Sigma) was added per well and the samples were incubated at room temperature for 5 minutes to allow for cleavage of the pro-drug cap prior to addition of DTNB. Using the concentrations of compound identified in both the donor and acceptor plates for each sample, a compound permeability parameter was calculated following equations outlined in the BD Gentest™ Pre-Coated PAMPA Plate System Manual.

A short description of data set [2]: DTNB assay: rate of S-S bond reduction. To be noted: for DTNB reduction rate: 22.5 μM reducing agent, 45 μM DTNB, 50 mM Tris-HCl. Format: biochemical. An excerpt: Thiol-containing compounds, such as the monothiol mucolytic agents described in this patent, can react with DTNB (5,5-Dithiobis(2-nitrobenzoic acid)) resulting in the cleavage of its single S—S bond. The DTNB assay serves a dual purpose in our analysis of monothiol compounds, as it can (1) be used to determine the “active concentration” of the mucolytic compounds (what amount of the compound in a reaction is able to cleave S—S bonds) and (2) to assess the rate that the compound can cleave S—S bonds. When cleaved, the resulting compound, NTB (2-nitro-5-thiobenzoate), is a colored product that is measured spectrophotometrically at an absorbance of 412 nm (Abs412). Using the molar extinction coefficient of NTB and measured maximum Abs412, the molar amount of DTNB that reacted with our mucolytic agents can be calculated. Monothiol mucolytic compounds react at a 1:1 stoichiometric ratio with DTNB (i.e. 1 mole of NTB is produced when 1 mole of DTNB is reacted with 1 mole of a monothiol reducing agent). To define the activity concentration of a compound, a final concentration of 22.5 μM mucolytic reducing agent was combined with an excess of DTNB (100 μM) in 1 mL 50 mM Tris-HCl buffer (pH 7.5). Maximum Abs412 was measured and then utilized to calculate the activity concentration. If observed activity concentrations differed from expected activity concentrations by more than 5%, the amount of the compound added to each reaction was accordingly adjusted to kinetically test the reducing rate in the next step. To determine rate of mucolytic reducing activity, 22.5 μM active reducing agent is combined with 45 μM DTNB in 1 mL 50 mM Tris-HCl buffer over a pH range (6.0-7.5). Abs412 is recorded in real time upon addition of the compound and rates were calculated using 2nd order kinetic parameters.

Data set [3] concerns the target T1, Muc5B (Homo sapiens, UniProt Q9HC84).
T1 construct: Various mucin-containing substrates (e.g. saliva, harvested HBE mucus, and disease sputum) treated with our monothiol mucolytic compounds; from tissue; host or cells: saliva; harvested HBE mucus; disease sputum
The data set is described as follows: Muc5b reduction in COPD sputum, agarose gel western blot. The class given is biochemical. The settings on record: FIG. 8; spontaneously induced sputum from a patient with COPD. As to the method:
(§1) Various mucin-containing substrates (e.g. saliva, harvested HBE mucus, and disease sputum) treated with our monothiol mucolytic compounds are quenched upon completion of the treatment period with a 10-fold excess of N-ethylmaleimide in order to alkylate any remaining active compound and to prevent further mucin reduction. A 10× concentrated sample loading buffer is diluted into each sample (1×TAE/5% glycerol/0.1% SDS/Bromophenol Blue). Samples ([…]) were analyzed by electrophoresis on 0.9% agarose gels using a buffer system consisting of 1×TAE/0.1% SDS. The agarose gel was soaked for 15 min in 4×SSC (0.6 M NaCl, 60 mM Tri-sodium citrate dehydrate) containing 10 mM DTT before transferring the samples from the gel onto a nitrocellulose membrane by vacuum blotter. Unreduced and reduced Muc5B were visualized on a LiCor Odyssey imaging detection system using a polyclonal antibody directed towards Muc5B.
An important aspect of mucolytic pro-drugs is that they must be activated in mucus on the lung surface.

The subject of a further data set is IL-8. The experiment in a line: IL-8 Secretion from primary HBEs (ELISA). Format: cell-based, human. The settings on record: FIG. 6B; 10 mM, apical surface of HBE cells, 24 hours. As to the method:
Reducing agents were made up in 50 mM Tris-HCl buffered to pH 7.5. Each compound solution (15 μL of 10 mM compound) was added to the apical surface of primary HBEs.
IL-8 secretion was measured from the basolateral HBE media 24 hours post-dose using a ThermoScientific human IL-8 ELISA kit. Samples were diluted 1:50 and then 50 μL of each dilution was added to the ELISA plate. The samples were completed in duplicate following standard reaction conditions as outlined in the kit manual. Absorbance was measured at 450 nm. A standard curve, generated from standards with known amounts of human IL-8, was used to calculate IL-8 amounts in the unknown samples. Supernatant from mucopurlent matters (SMM) purified from cystic fibrosis sputum was used as a positive control for IL-8 secretion.

Data set [4] has as its system mucus on primary human bronchial epithelial (HBE) cultures. The data set is described as follows: Mucus reduction on primary human bronchial epithelial (HBE) cultures, western blot. The settings on record: FIG. 9; added to apical surface of HBE cultures. Format: cell-based. As to the method: as §1
Mucin reduction kinetics were assessed by western blot at the indicated times post-addition of mucolytic agents to the apical surface of HBE cultures.

The target in data set [5] is T1, Muc5B. The data set is described as follows: Mucin agarose gel western blot (saliva / mucus samples). Format: biochemical. The settings on record: for Muc5b reduction: FIG. 4. As to the method:
as §1

A short description of data set [6]: Elimination of inhaled 14C-labelled NAC from the lungs in animal studies. The class given is in vivo. The settings on record: inhaled or intranasal, 14C-labled NAC, administered by inhalation, animal studies (unpublished observation).

SMILES strings stand for the structures.

As for `OC[C@@H](O)[C@@H](O)[C@H](O)[C@@H](O)CN(CCOc1ccc(CS)cc1)C[C@H](O)[C@@H](O)[C@H](O)[C@H](O)CO` [Compound 86, (2R,2′R,3R,3′R,4R,4′R,5S,5′S)-6,6′-((2-(4-(mercaptomethyl)phenoxy)ethyl)azanediyl)bis(hexane-1,2,3,4,5-pentaol)], the “membrane permeability (PAMPA)” value in data set [1] is listed as “poor membrane permeability”. Besides, the DTNB cleavage entry in data set [2] (FIG. 7 left panel) is on record as “rapidly cleaves DTNB”. Moreover, the DTNB reduction rate in data set [2] (pH 6) was 160 M⁻¹ s⁻¹. Also, the “Muc5b reduction in sputum” value on Muc5B [3] is given as “rapidly reduced Muc5b”. Moreover, in the data set with IL-8, the IL-8 secretion entry is on record as “no change in IL-8”. Further, in data set [4], the “duration of mucus reduction” value is reported as “substantially recovered 24 hours after dosing”. The mucin reduction kinetics entry in data set [4] is on record as “rapid reduction of the mucus”. Further, the “reducing capacity relative to 76 (Muc5B)” value at Muc5B [5] (FIG. 3) was “retain the reducing capacity of 76”. The Muc5b reduction result is given as “partial reduction” at Muc5B [5] (3 mM) and “full Muc5b reduction” on Muc5B [5] (30 mM).
With `CC(=O)N[C@@H](CS)C(=O)O` [NAC, N-acetyl cysteine, reference compound], the half-life in data set [6] was around 20 min. Moreover, the DTNB reduction rate in data set [2] (pH 6) stood at 10 M⁻¹ s⁻¹; in data set [2] (pH 6.5) it was 26 M⁻¹ s⁻¹; in data set [2] (pH 7), 69 M⁻¹ s⁻¹; in data set [2] (pH 7.5), 230 M⁻¹ s⁻¹. The Muc5b reduction entry on Muc5B [5] (30 mM) is “partial Muc5b reduction”.
